Measurements as given in ChEMBL document CHEMBL4340530, “Peptide-based covalent inhibitors of MALT1 paracaspase” (Bioorg Med Chem Lett, 2019).
The source made the active and inactive calls. The rule behind the calls is not given here.

Key:
OCI-Ly3 = experiment: Antiproliferative activity against human OCI-LY3 cells assessed as growth inhibition treated every 48 hrs measured after 96 hrs by CellTiter-Glo assay; type: functional
[1] = target: T1, Mucosa-associated lymphoid tissue lymphoma translocation protein 1 (Homo sapiens, UniProt Q9UDY8); experiment: Inhibition of recombinant LZ-fused MALT1 (340 to 789 residues) (unknown origin) using Ac-LRSR-AMC as substrate by fluorescence assay
T1 sequence (Q9UDY8 whole entry): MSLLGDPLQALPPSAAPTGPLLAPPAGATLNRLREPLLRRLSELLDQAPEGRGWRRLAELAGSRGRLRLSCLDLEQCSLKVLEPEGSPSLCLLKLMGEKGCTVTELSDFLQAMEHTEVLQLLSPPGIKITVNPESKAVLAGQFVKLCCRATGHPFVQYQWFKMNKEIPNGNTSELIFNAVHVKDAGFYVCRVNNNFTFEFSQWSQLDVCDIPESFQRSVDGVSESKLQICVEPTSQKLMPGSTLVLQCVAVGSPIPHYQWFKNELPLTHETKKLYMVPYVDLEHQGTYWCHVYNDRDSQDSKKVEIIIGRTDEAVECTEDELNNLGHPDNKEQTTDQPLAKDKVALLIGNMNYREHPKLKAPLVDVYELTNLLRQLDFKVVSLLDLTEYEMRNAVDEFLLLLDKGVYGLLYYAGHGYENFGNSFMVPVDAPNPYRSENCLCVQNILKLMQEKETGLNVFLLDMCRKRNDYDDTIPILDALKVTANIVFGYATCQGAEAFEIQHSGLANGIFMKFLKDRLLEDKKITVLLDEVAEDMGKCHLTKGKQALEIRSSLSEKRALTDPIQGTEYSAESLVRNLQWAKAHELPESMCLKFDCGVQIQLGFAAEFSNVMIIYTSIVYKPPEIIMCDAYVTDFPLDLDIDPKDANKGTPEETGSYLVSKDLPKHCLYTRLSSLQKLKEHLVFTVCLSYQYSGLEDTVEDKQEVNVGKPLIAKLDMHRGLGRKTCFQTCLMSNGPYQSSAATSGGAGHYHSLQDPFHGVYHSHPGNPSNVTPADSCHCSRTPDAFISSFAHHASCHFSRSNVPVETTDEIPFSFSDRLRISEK

[2] = target: T2, Mucosa-associated lymphoid tissue lymphoma translocation protein 1 (Homo sapiens) (UniProt Q9UDY8); experiment: Inhibition of MALT1 in human OCI-LY3 cells assessed as reduction in Relb cleavage at 20 uM by Western blot analysis; type: cell-based
T2 sequence (whole entry): T1 sequence (Q9UDY8 whole entry)

OCI-Ly1 = experiment: Antiproliferative activity against human OCI-LY1 cells up to 20 uM; type: functional, cell-based
[3] = target: Cathepsin B (Homo sapiens) (UniProt P07858); experiment: Inhibition of cathepsin B (unknown origin) at 10 uM relative to control
[4] = target: Procathepsin L (Homo sapiens) (UniProt P07711); experiment: Inhibition of cathepsin L (unknown origin) at 1 uM relative to control
[5] = target: T3, Cathepsin L2 (Homo sapiens) (UniProt O60911); experiment: Inhibition of cathepsin V (unknown origin) at 100 nM relative to control
T3 sequence (whole entry): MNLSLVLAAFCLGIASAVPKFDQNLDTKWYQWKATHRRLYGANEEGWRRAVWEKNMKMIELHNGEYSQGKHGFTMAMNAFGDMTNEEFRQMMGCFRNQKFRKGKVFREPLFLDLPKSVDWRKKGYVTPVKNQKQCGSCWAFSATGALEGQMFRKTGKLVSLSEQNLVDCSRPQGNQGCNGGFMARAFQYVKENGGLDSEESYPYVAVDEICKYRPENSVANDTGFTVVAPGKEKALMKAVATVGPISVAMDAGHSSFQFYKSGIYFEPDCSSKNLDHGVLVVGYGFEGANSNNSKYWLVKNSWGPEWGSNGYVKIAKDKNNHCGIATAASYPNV

[6] = target: Cathepsin S (Homo sapiens) (UniProt P25774); experiment: Inhibition of cathepsin S (unknown origin) at 1 uM relative to control
[7] = target: Prothrombin (Homo sapiens) (UniProt P00734); experiment: Inhibition of thrombin (unknown origin) at 100 nM relative to control
[8] = target: T4, Calpain1/2 (Homo sapiens) (UniProt P17655+P07384); experiment: Inhibition of calpain (unknown origin) at 100 nM relative to control; type: protein assay
[9] = target: T5, Cathepsin K (Homo sapiens) (UniProt P43235); experiment: Inhibition of cathepsin K (unknown origin) at 10 uM relative to control
T5 sequence (whole entry): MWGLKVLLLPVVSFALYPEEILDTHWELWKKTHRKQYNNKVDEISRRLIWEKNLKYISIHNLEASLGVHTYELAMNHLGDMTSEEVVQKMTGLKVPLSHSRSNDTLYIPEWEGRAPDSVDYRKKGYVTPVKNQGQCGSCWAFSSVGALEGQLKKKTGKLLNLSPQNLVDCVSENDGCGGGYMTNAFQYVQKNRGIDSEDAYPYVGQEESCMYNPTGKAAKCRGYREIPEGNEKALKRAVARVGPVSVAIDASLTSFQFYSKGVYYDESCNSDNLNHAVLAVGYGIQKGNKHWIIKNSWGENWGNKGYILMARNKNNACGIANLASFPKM

[10] = target: Tryptase beta-2 (Homo sapiens) (UniProt P20231); experiment: Inhibition of tryptase b2 (unknown origin) at 100 nM relative to control
[11] = target: T4, Calpain1/2 (Homo sapiens); experiment: Inhibition of calpain (unknown origin) at 1 uM relative to control; type: protein assay
[12] = target: Cathepsin S (Homo sapiens) (UniProt P25774); experiment: Inhibition of cathepsin S (unknown origin) at 10 uM relative to control
[13] = target: Prothrombin (Homo sapiens) (UniProt P00734); experiment: Inhibition of thrombin (unknown origin) at 1 uM relative to control
Trypsin (Homo sapiens) [14] = target: T6, Trypsin (Homo sapiens) (UniProt P07477+P07478+P35030); experiment: Inhibition of trypsin (unknown origin) at 10 uM relative to control; type: protein assay
Trypsin (Homo sapiens) [15] = target: T6, Trypsin (Homo sapiens); experiment: Inhibition of trypsin (unknown origin) at 100 nM relative to control; type: protein assay
[16] = target: T5, Cathepsin K (Homo sapiens); experiment: Inhibition of cathepsin K (unknown origin) at 1 uM relative to control
Trypsin (Homo sapiens) [17] = target: T6, Trypsin (Homo sapiens); experiment: Inhibition of trypsin (unknown origin) at 1 uM relative to control; type: protein assay
[18] = target: T5, Cathepsin K (Homo sapiens); experiment: Inhibition of cathepsin K (unknown origin) at 100 nM relative to control
[19] = target: T3, Cathepsin L2 (Homo sapiens); experiment: Inhibition of cathepsin V (unknown origin) at 10 uM relative to control
[20] = target: Prothrombin (Homo sapiens) (UniProt P00734); experiment: Inhibition of thrombin (unknown origin) at 10 uM relative to control
[21] = target: Procathepsin L (Homo sapiens) (UniProt P07711); experiment: Inhibition of cathepsin L (unknown origin) at 10 uM relative to control
[22] = target: Tryptase beta-2 (Homo sapiens) (UniProt P20231); experiment: Inhibition of tryptase b2 (unknown origin) at 10 uM relative to control
[23] = target: Procathepsin L (Homo sapiens) (UniProt P07711); experiment: Inhibition of cathepsin L (unknown origin) at 100 nM relative to control
[24] = target: Cathepsin B (Homo sapiens) (UniProt P07858); experiment: Inhibition of cathepsin B (unknown origin) at 100 nM relative to control
[25] = target: T3, Cathepsin L2 (Homo sapiens); experiment: Inhibition of cathepsin V (unknown origin) at 1 uM relative to control
[26] = target: Cathepsin S (Homo sapiens) (UniProt P25774); experiment: Inhibition of cathepsin S (unknown origin) at 100 nM relative to control
[27] = target: Cathepsin B (Homo sapiens) (UniProt P07858); experiment: Inhibition of cathepsin B (unknown origin) at 1 uM relative to control
[28] = target: Tryptase beta-2 (Homo sapiens) (UniProt P20231); experiment: Inhibition of tryptase b2 (unknown origin) at 1 uM relative to control
[29] = target: T4, Calpain1/2 (Homo sapiens); experiment: Inhibition of calpain (unknown origin) at 10 uM relative to control; type: protein assay

Chain of Cathepsin S (Homo sapiens) (P25774 115-331 limits assumed): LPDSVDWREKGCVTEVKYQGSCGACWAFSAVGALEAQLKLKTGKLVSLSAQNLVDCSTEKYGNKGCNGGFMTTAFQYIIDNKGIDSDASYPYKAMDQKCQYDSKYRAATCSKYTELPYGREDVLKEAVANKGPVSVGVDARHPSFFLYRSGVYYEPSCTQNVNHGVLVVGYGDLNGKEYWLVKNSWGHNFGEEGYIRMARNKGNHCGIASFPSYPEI
T4 sequence (P07384 whole entry, looked up): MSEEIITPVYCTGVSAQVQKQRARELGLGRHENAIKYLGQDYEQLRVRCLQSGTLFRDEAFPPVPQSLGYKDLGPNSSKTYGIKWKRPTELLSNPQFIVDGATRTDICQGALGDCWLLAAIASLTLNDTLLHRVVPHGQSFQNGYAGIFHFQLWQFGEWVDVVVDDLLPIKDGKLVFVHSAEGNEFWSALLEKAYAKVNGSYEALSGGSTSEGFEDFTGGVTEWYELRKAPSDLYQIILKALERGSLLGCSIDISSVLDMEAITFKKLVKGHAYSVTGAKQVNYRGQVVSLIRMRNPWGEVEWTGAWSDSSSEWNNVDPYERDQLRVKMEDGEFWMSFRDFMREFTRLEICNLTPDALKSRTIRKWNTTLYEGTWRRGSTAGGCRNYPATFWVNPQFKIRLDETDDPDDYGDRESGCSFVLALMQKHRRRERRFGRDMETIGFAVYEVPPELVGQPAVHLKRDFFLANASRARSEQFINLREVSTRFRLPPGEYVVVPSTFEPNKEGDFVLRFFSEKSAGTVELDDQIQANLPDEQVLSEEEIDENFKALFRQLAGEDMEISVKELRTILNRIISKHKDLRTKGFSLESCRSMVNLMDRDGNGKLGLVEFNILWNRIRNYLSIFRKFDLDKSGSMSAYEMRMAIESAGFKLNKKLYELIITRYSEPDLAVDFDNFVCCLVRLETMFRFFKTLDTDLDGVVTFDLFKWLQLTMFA
T4 sequence (P17655 whole entry, looked up): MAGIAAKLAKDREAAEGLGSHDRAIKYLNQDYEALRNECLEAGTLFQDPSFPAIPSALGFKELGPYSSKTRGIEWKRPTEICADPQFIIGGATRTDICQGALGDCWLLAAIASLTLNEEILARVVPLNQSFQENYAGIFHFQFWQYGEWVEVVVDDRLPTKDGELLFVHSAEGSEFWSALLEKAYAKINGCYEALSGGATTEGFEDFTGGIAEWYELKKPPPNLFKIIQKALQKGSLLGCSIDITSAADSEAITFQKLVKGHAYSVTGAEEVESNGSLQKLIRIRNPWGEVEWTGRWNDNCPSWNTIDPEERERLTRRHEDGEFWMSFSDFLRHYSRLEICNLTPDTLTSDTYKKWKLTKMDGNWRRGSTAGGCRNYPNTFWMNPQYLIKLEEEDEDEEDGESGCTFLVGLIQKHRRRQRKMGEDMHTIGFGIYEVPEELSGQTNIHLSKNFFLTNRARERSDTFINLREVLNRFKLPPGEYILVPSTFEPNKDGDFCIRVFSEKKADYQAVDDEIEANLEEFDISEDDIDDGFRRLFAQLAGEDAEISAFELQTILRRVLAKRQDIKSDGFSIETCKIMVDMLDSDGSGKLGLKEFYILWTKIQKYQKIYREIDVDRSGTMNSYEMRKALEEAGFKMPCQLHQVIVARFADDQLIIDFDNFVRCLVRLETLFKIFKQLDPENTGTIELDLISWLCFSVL
Chain of Tryptase beta-2 (Homo sapiens) (P20231 whole entry): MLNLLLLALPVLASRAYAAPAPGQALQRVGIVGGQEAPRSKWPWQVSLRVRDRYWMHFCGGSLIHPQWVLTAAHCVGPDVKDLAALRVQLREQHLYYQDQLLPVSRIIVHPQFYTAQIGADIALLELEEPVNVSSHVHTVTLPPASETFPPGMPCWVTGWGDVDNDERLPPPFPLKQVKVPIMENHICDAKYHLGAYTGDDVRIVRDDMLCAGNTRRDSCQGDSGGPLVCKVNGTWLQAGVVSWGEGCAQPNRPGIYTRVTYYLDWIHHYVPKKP
Chain of Procathepsin L (Homo sapiens) (P07711 114-333 limits assumed): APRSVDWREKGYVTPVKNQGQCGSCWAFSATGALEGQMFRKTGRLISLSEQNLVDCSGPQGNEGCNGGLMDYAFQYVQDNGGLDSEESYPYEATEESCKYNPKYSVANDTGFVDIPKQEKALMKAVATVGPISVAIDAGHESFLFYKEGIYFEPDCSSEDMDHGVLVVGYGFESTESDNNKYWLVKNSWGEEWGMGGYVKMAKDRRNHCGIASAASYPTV

GI50 (OCI-Ly3)	inhibition [3]	inhibition [6]	inhibition [7]	inhibition [8]	inhibition [9]	inhibition [10]	inhibition [11]	inhibition [12]	inhibition [13]	inhibition (Trypsin (Homo sapiens) [14])	inhibition (Trypsin (Homo sapiens) [15])	inhibition [16]	inhibition (Trypsin (Homo sapiens) [17])	inhibition [18]	inhibition [19]	inhibition [20]	inhibition [21]	inhibition [22]	inhibition [24]	Compound	further results
> 20 µM																				CCC(=O)[C@H](CCCNC(=N)N)NC(=O)[C@@H]1CCCN1C(=O)[C@@H](NC(=O)[C@H](CC(C)C)NC(=O)OCc1ccccc1)C(C)C	Ki [1]: > 5 µM; inhibition [2]: inactive; Activity (OCI-Ly1): inactive
0.15 µM	100%	100%	2.3%	98.5%	89.7%	6.5%	99.8%	100%	1.1%	94.2%	64%	38.3%	92.6%	28.8%	94.1%	41.8%	49.4%	47.5%	88.7%	CC(C)[C@H](NC(=O)c1ccc(Br)cc1)C(=O)N[C@@H](CO)C(=O)N[C@@H](CCCNC(=N)N)C(=O)CF	inhibition [4]: 11.2%; inhibition [5]: 29.8%; inhibition [23]: 13%; inhibition [25]: 58.4%; inhibition [26]: 99%; inhibition [27]: 99.5%; inhibition [28]: 15.3%; inhibition [29]: 105%
0.46 µM	98.2%	85.7%	4.6%	25.9%	98.9%	1%	76%	99.7%	19.4%	93.7%	65%	98.1%	91%	68.7%	86.3%	75.8%	36.2%	31%	10.7%	CC(C)[C@H](NC(=O)c1ccc(Br)cc1)C(=O)N1CCCC[C@H]1C(=O)N[C@@H](CCCNC(=N)N)C(=O)CF	inhibition [25]: 32.1%; inhibition [26]: 82.2%; inhibition [27]: 79.7%; inhibition [28]: 3.4%; inhibition [29]: 112%
